According to patent US20200246364A1, “MEDICAL APPLICATION OF COMPOSITION OF FRUCTOSE-1,6-BISPHOSPHATE AND BLOOD CONCENTRATION STABILIZER THEREOF” (ZHEJIANG UNIVERSITY, priority 2017, published 2020):

Columns and labels:
glioma cells U87-MG = assay: Lactic acid released by glioma cells (glycolysis); format: cell-based, human; settings: 1.6 mM
Description: (§1) Human glioma cell strains (U87-MG, KNS-89, SHG-44) were respectively incubated in culture media containing 0.8 mM of trisodium fructose-1,6-bisphosphate salt, and 1.6 mM of trisodium fructose-1,6-bisphosphate salt, and 1.6 mM of 2-deoxyglucose, and the contents of lactic acid as the final glycolytic product released by the cells in the culture media were measured after 12 h, 24 h, 36 h, and 48 h. […] Human glioma cell strain (U87-MG) was incubated in the culture medium containing 0.8 mM of trisodium fructose-1,6-bisphosphate salt for 1 h, 3 h, 6 h, 12 h, 24 h, 36 h, and 48 h, and level changes of key metabolic enzymes in the glycolytic pathway of cells were measured by Western Blot at the respective time points.

glioma cells SHG-44 = assay: Lactic acid released by glioma cells (glycolysis); format: cell-based, human; settings: SHG-44, 1.6 mM
Description: as §1

glioma cells KNS-89 = assay: Lactic acid released by glioma cells (glycolysis); format: cell-based, human; settings: KNS-89, 1.6 mM
Description: as §1

Bel-7402 = assay: cells; settings: Homo sapiens, Bel-7402, 72 h
Description: (§2) Human liver cancer cell strains Bel-7402 and huh-7, which had been incubated for 24 hours, were respectively incubated in a medium containing 1.6 mM or 0.8 mM of trisodium fructose-1,6-bisphosphate, a medium containing 0.2 mM of metformin or 25 μM of sitagliptin, and a medium containing 0.8 mM of trisodium fructose-1,6-bisphosphate and 0.2 mM of metformin/25 μM of sitagliptin for 72 h. A control group (Con) was not treated with the agent. Cell viability was determined by Sulforhodamine B (SRB) staining analysis method.

[1] = test system: fructose-1,6-bisphosphatase 1; assay: Kidney protein level of fructose-1,6-bisphosphatase 1 after 14 days treatment (Western Blot); format: in vivo; settings: SD rats, 14 days i.g.; FBP 500 mg/kg, metformin 150 mg/kg, sitagliptin 20 mg/kg; vs control group
Description: 180-200 g SD rats were divided into 4 groups: a saline control group, a trisodium fructose-1,6-bisphosphate hydrate group (500 mg/kg, i.g), a metformin group (150 mg/kg, i.g) or a sitagliptin group (20 mg/kg, i.g), and a trisodium fructose-1,6-bisphosphate and metformin or sitagliptin combination group, 5 rats in each group. All groups were intragastrically treated, metformin or sitagliptin was administrated 0.5 h before fructose-1,6-bisphosphate, and this was repeated in 14 consecutive days. At 3 hours after the last intragastric treatment with fructose-1,6-bisphosphate, rat blood was collected to detect the blood concentration of FBP, kidney tissue was taken and the protein level of fructose-1,6-bisphosphatase 1 was measured by Western Blot.

[2] = test system: mouse liver cancer cells H22; assay: Tumor growth of mouse liver cancer H22 model; format: in vivo, ICR mice; settings: FBP 500 mg/kg, i.g., 7 days; for Tumor weight: three times per day; for inhibition of tumor growth (inhibition ratio): H22, metformin 150 mg/kg, sitagliptin 20 mg/kg
Description: The treatment was performed three times per day, in which metformin or sitagliptin was administrated 0.5 h before trisodium fructose-1,6-bisphosphate. This is repeated for 7 days, and situations of the animals during the experiments were observed. The animals were sacrificed 24 hours after the last treatment, the tumor masses were taken out and weighed, and the average tumor weight in each group of animals was used as an efficacy index.

SW620 = assay: cells; settings: Homo sapiens, SW-620, 72 h, read-out: cell viability (Con = 100)
Description: (§3) Human intestinal cancer cell strains SW620 and HCT-8, which had been incubated for 24 hours, were respectively incubated in a medium containing 0.8 mM of trisodium fructose-1,6-bisphosphate, a medium containing 0.2 mM of metformin/100 μM of sitagliptin, and a medium containing 0.8 mM of trisodium fructose-1,6-bisphosphate and 0.2 mM of metformin/100 μM of sitagliptin for 72 h. A control group (Con) was not treated with the agent. Cell viability was determined by Sulforhodamine B (SRB) staining analysis method.

[3] = Weight gain and fat accumulation caused by high-fat diet; format: in vivo, ICR mice; settings: high-fat diet mice
Description: 40 ICR male mice (17-19 g/per mouse) were divided into 2 groups. […] The animals of the normal group (Naive) were still fed with the basic feed, and the model animals were equally divided into 4 groups and were further fed with the high-fat diet. In addition, according to the amount of water the mice had consumed, a certain dose of the agent was dissolved in drinking water. The animals in the model group (Model) were fed with the purified water, the animals in the fructose-1,6-bisphosphate group were fed with water containing 0.18% of 8-molecule hydrate of sodium fructose-1,6-bisphosphate (equivalent to FBP 300 mg/kg), the animals in the sitagliptin group were fed with water containing 0.012% of sitagliptin phosphate salt (equivalent to STG 20 mg/kg), and the animals in the combination group were fed with water containing FBP 500 mg/kg+STG 20 mg/kg. The treatment lasted continuously for 6 weeks, the body weight, food intake and water intake were measured per week, the body weight and body length (CM) were measured on the last day of the last week, and a Lee's INDEX (Lee's INDEX=body weight (g)^(1/3) * 1000/body length (cm)) was calculated to evaluate the state of animal obesity. Then, the animals were sacrificed by cervical vertebra dislocation and the mice were dissected, the epididymal fat pad was taken and weighed, and a fat coefficient was calculated to further investigate the degree of obesity of the mice.

HCT-8 = assay: Cell viability, Sulforhodamine B (SRB) staining; format: cell-based, human; settings: HCT-8, 72 h, FBP 0.8 mM
Description: as §3

Huh-7 = assay: Cell viability, Sulforhodamine B (SRB) staining; format: cell-based, human; settings: Huh-7, 72 h, FBP 0.8 mM
Description: as §2

melanoma B16 cell = assay: Cell viability, Sulforhodamine B (SRB) staining; settings: Mus musculus, B16, 72 h, read-out: cell viability inhibited
Description: Mouse melanoma B16 cells, which had been incubated for 24 hours, were incubated in a medium containing 0.8 mM of trisodium fructose-1,6-bisphosphate, a medium containing 20 μM of sitagliptin, and a medium containing 0.8 mM of trisodium fructose-1,6-bisphosphate and 20 μM of sitagliptin for 72 h. A control group (Con) was not treated with the agent. Cell viability was determined by Sulforhodamine B (SRB) staining analysis method.

O=CC[C@@H](O)[C@H](O)[C@H](O)CO [2-DG, 2-deoxy-D-glucose]
Relative levels of lactic acid (compared with the control group) (glioma cells U87-MG; 12 h): 0.48 ± 0.16 | Relative levels of lactic acid (compared with the control group) (glioma cells U87-MG; 24 h): 0.31 ± 0.07 | Relative levels of lactic acid (compared with the control group) (glioma cells U87-MG; 36 h): 0.65 ± 0.10 | Relative levels of lactic acid (compared with the control group) (glioma cells SHG-44; 12 h): 0.76 ± 0.15 | Relative levels of lactic acid (compared with the control group) (glioma cells SHG-44; 24 h): 0.62 ± 0.13 | Relative levels of lactic acid (compared with the control group) (glioma cells SHG-44; 36 h): 0.57 ± 0.04 | Relative levels of lactic acid (compared with the control group) (glioma cells KNS-89; 12 h): 0.31 ± 0.09 | Relative levels of lactic acid (compared with the control group) (glioma cells KNS-89; 24 h): 0.27 ± 0.13 | Relative levels of lactic acid (compared with the control group) (glioma cells KNS-89; 36 h): 0.31 ± 0.02

CN(C)C(=N)N=C(N)N [Met, metformin]
viability at 200 µM (Bel-7402; read-out: cell viability (Con = 100)): 91.7 ± 1.62% | cytotoxicity at 200 µM (Bel-7402; read-out: cell viability inhibited): 5% | protein level of fructose-1,6-bisphosphatase 1 in kidney tissue (Western Blot) [1]: not significantly changed | Tumor weight ([2]; H22, metformin experiment, Met 150 mg/kg, Con 1.66 ± 0.29): 1.46 ± 0.23 g | inhibition of tumor growth (inhibition ratio) [2]: no significant difference | viability at 200 µM (SW620): 95.9 ± 7.54%

N[C@@H](CC(=O)N1CCn2c(nnc2C(F)(F)F)C1)Cc1cc(F)c(F)cc1F [STG, sitagliptin]
fat coefficient (epididymal fat pad) ([3]; 6 weeks, model group 3.96±0.83%, normal group 1.58±0.68%): 3.28±1.14% | Lee's INDEX ([3]; 6 weeks, model group 353.28±9.64, normal group 337.05±9.96): 346.34±9.36 | body weight after 6 weeks ([3]; agents in drinking water, FBP 300 mg/kg, STG 20 mg/kg, combination FBP 500 mg/kg+STG 20 mg/kg, model group 47.89±3.34): 46.78 ± 6.1 g | protein level of fructose-1,6-bisphosphatase 1 in kidney tissue (Western Blot) [1]: not significantly changed | Tumor weight ([2]; H22, sitagliptin experiment, STG 20 mg/kg, Con 1.48 ± 0.34): 0.78 ± 0.31 g | inhibition of tumor growth (inhibition ratio) [2]: 46.12% | cell viability inhibited (HCT-8; sitagliptin 100 μM): did not affect | viability at 100 µM (HCT-8; Homo sapiens, STG 100 μM, read-out: cell viability (Con = 100)): 95.4 ± 3.79% | viability at 25 µM (Huh-7; Homo sapiens, STG 25 μM, read-out: cell viability (Con = 100)): 92.1 ± 1.35% | cell viability inhibited (Huh-7; sitagliptin 25 μM): no significant difference | cytotoxicity at 20 µM (melanoma B16 cell): 16%
